# Measured values as given in ChEMBL document CHEMBL4316583, “In Vitro and in Vivo Antitumor Effects of Plant-Derived Miliusanes and Their Induction of Cellular Senescence” (J Med Chem, 2019).
# The source made the active and inactive calls. The rule behind the calls is not given here.
# Assays:
# HCT-116 [1] = experiment: Growth inhibition human HCT116 cells after 72 hrs by MTS assay; assay type: functional, cell-based; details: HCT-116, 72 h
# HCT-116 [2] = experiment: Induction cell cycle arrest in human HCT116 cells assessed as accumulation in G1 phase at 1.6 uM after 12 hrs by propidium iodide-staining based flow cytometry; assay type: functional
# [3] = Toxicity in BALB/c mouse assessed as mortality at 10 mg/kg, ip dosed daily for 28 days; assay type: organism-based; details: in vivo, 672 h
# HCT-116 [4] = experiment: Antitumor activity against human HCT116 cells xenografted in nude BALB/c mouse assessed as tumor growth inhibition at 30 mg/kg, ip administered twice a week for 3 weeks relative to control; assay type: functional; details: HCT-116, ip, 504 h, read-out: TGI
# A2780 = experiment: Growth inhibition human A2780 cells after 72 hrs by MTS assay; assay type: functional, cell-based; details: A2780, 72 h
# HCT-116 [5] = experiment: Antitumor activity against human HCT116 cells xenografted in nude BALB/c mouse assessed as tumor growth inhibition at 20 mg/kg, ip administered twice a week for 3 weeks relative to control; assay type: functional; details: HCT-116, ip, 504 h, read-out: TGI
# A549 = experiment: Cytotoxicity against human A549 cells assessed as cell growth inhibition after 48 hrs by sulforhodamine B assay; assay type: functional, cell-based; details: A549, 48 h
# HCT-116 [6] = experiment: Induction of apoptosis in human HCT116 cells assessed as necrotic cells at 1.32 uM after 48 hrs by annexin V/propidium iodide-double staining based flow cytometry (reference value: […]); assay type: functional
# [7] = Toxicity in nude BALB/c mouse xenografted with human HCT116 cells assessed as body weight loss at 7.5 mg/kg, ip measured on day 10 and 11; assay type: organism-based; details: in vivo
# HCT-116 [8] = experiment: Antiproliferative activity against human HCT116 cells xenografted in BALB/c mouse at 10 mg/kg, administered every other day for 3 weeks by Ki67-staining based assay; assay type: functional, organism-based
# HCT-116 [9] = experiment: Cytotoxicity against human HCT116 cells assessed as cell growth inhibition after 24 hrs by sulforhodamine B assay; assay type: functional, cell-based; details: HCT-116, 24 h
# HCT-116 [10] = experiment: Induction of cellular senescence in human HCT116 cells assessed as up-regulation of p21 protein expression at 0.1 to 0.4 ug/ml after 48 hrs by Western blot analysis; assay type: functional, cell-based
# HCT-116 [11] = experiment: Antiproliferative activity against human HCT116 cells assessed as inhibition of colony formation at 0.66 to 2.63 uM after 14 days by crystal violet-staining based assay; assay type: functional, cell-based
# HCT-116 [12] = experiment: Induction cell cycle arrest in human HCT116 cells assessed as accumulation in S phase at 1.6 uM after 24 hrs by propidium iodide-staining based flow cytometry; assay type: functional
# A-375 [13] = experiment: Cytotoxicity against human A375 cells assessed as cell growth inhibition after 48 hrs by sulforhodamine B assay; assay type: functional, cell-based; details: A-375, 48 h
# [14] = Ratio of IC50 for human HCT116/VM46 cells to IC50 for human HCT116 cells after 72 hrs by MTS assay; assay type: functional
# [15] = Ratio of IC50 for human A2780DDP cells to IC50 for human A2780 cells after 72 hrs by MTS assay; assay type: functional
# HCT-116 [16] = experiment: Antitumor activity against human HCT116 cells xenografted in nude BALB/c mouse assessed as reduction in volume of growing subcutaneous tumor at 20 to 30 mg/kg, ip administered twice a week for 3 weeks; assay type: functional, organism-based
# HCT-116 [17] = experiment: Induction of cellular senescence in human HCT116 cells at 1.32 uM after 48 hrs by SA-beta-gal-staining based assay; assay type: functional, cell-based
# HCT-116 [18] = experiment: Induction of apoptosis in human HCT116 cells assessed as viable cells at 1.32 uM after 48 hrs by annexin V/propidium iodide-double staining based flow cytometry (reference value: 88.3%); assay type: functional; details: HCT-116, 48 h, read-out: Activity
# A-375 [19] = experiment: Antitumor activity against human A375 cells xenografted in nude BALB/c mouse assessed as tumor growth inhibition at 7.5 mg/kg, ip administered every other day for 23 days relative to control; assay type: functional; details: A-375, ip, 552 h, read-out: TGI
# HCT-116 [20] = experiment: Induction of apoptosis in human HCT116 cells assessed as early apoptotic cells at 1.32 uM after 48 hrs by annexin V/propidium iodide-double staining based flow cytometry (reference value: 4.8%); assay type: functional
# [21] = Ratio of IC50 for human A2780/TAX cells to IC50 for human A2780 cells after 72 hrs by MTS assay; assay type: functional
# Mus musculus [22] = experiment: Effect on p27 protein expression in BALB/c mouse xenografted with human HCT116 cells at 10 mg/kg, administered every other day for 3 weeks by immunohistochemical analysis; assay type: functional, organism-based
# HCT-116 [23] = experiment: Antitumor activity against human HCT116 cells xenografted in nude BALB/c mouse assessed as tumor growth inhibition at 7.5 mg/kg, ip administered daily for 21 days relative to control; assay type: functional; details: HCT-116, ip, 504 h, read-out: TGI
# HCT-116 [24] = experiment: Antitumor activity against human HCT116 cells xenografted in nude BALB/c mouse assessed as suppression of excised tumor size at 20 mg/kg, ip administered twice a week for 3 weeks relative to control; assay type: functional
# [25] = Ratio of IC50 for human HCT116/VP35 cells to IC50 for human HCT116 cells after 72 hrs by MTS assay; assay type: functional
# HCT-116 [26] = experiment: Antitumor activity against human HCT116 cells xenografted in nude BALB/c mouse assessed as suppression of excised tumor size at 30 mg/kg, ip administered twice a week for 3 weeks relative to control; assay type: functional
# [27] = Toxicity in nude BALB/c mouse xenografted with human HCT116 cells assessed as body weight loss at 20 to 30 mg/kg, ip administered twice a week for 3 weeks; assay type: organism-based; details: in vivo, 504 h
# HeLa [28] = experiment: Antitumor activity against human HeLa cells xenografted in nude BALB/c mouse assessed as tumor growth inhibition at 10 mg/kg, ip administered every other day for 21 days and observed for 6 days before sacrifice relative to control; assay type: functional; details: read-out: TGI
# HCT-116 [29] = experiment: Induction of apoptosis in human HCT116 cells assessed as late apoptotic cells at 1.32 uM after 48 hrs by annexin V/propidium iodide-double staining based flow cytometry (reference value: 4.6%); assay type: functional
# [30] = system: Panel NCI-60 (60 carcinoma cell lines); experiment: Growth inhibition human NCI60 cells after 48 hrs by sulforhodamine B assay; assay type: functional
# Mus musculus [31] = experiment: Induction of cellular senescence in BALB/c mouse xenografted with human HCT116 cells assessed as up-regulation of p16 protein expression at 10 mg/kg, administered every other day for 3 weeks by immunohistochemical analysis; assay type: functional, organism-based
# HCT-116 [32] = experiment: Cytotoxicity against human HCT116 cells assessed as cell growth inhibition after 48 hrs by sulforhodamine B assay; assay type: functional, cell-based; details: HCT-116, 48 h
# HCT-116 [33] = experiment: Induction cell cycle arrest in human HCT116 cells assessed as reduction in accumulation in S phase at 1.6 uM after 12 hrs by propidium iodide-staining based flow cytometry; assay type: functional
# Mus musculus [34] = experiment: Induction of cellular senescence in BALB/c mouse xenografted with human HCT116 cells assessed as up-regulation of p21 protein expression at 10 mg/kg, administered every other day for 3 weeks by immunohistochemical analysis; assay type: functional, organism-based
# HeLa [35] = experiment: Antitumor activity against human HeLa cells xenografted in nude BALB/c mouse assessed as suppression of excised tumor size at 10 mg/kg, ip administered every other day for 21 days and observed for 6 days before sacrifice relative to control; assay type: functional
# A-375 [36] = experiment: Antitumor activity against human A375 cells xenografted in nude BALB/c mouse assessed as suppression of tumor volume at 7.5 mg/kg, ip administered every other day for 23 days relative to control; assay type: functional; details: A-375, ip, 552 h, read-out: TGI
# HT-29 = experiment: Growth inhibition human HT-29 cells after 72 hrs by MTS assay; assay type: functional, cell-based
# HCT-116 [37] = experiment: Induction of cellular senescence in human HCT116 cells assessed as up-regulation of p21 protein expression at 1.32 uM after 48 hrs in presence of p21 siRNA by SA-beta-gal-staining based Western blot analysis; assay type: functional, cell-based
smiles,measurement,setting,value
CC(C)=CCC/C(C)=C/[C@H]1OC(=O)C[C@]12C[C@H](O)C=CC2=O,IC50,HCT-116 [1],1520 nM
same,Activity,HCT-116 [2],Active
same,Activity,[3],Non-Toxic
same,inhibition in vivo at 30 mg/kg,HCT-116 [4],72.7%
same,IC50,A2780,1230 nM
same,inhibition in vivo at 20 mg/kg,HCT-116 [5],68.7%
same,IC50,A549,2450 nM
same,Activity,HCT-116 [6],2.5%
same,Activity,[7],Toxic
same,Activity,HCT-116 [8],Active
same,IC50,HCT-116 [9],3670 nM
same,Activity,HCT-116 [10],Active
same,Activity,HCT-116 [11],Active
same,Activity,HCT-116 [12],inactive
same,IC50,A-375 [13],1500 nM
same,Ratio IC50,[14],0.9
same,Ratio IC50,[15],1
same,Activity,HCT-116 [16],Active
same,Activity,HCT-116 [17],Active
same,viability at 1.32 µM,HCT-116 [18],88.2%
same,inhibition in vivo at 7.5 mg/kg,A-375 [19],12.8%
same,Activity,HCT-116 [20],4.4%
same,Ratio IC50,[21],0.8
same,Activity,Mus musculus [22],inactive
same,inhibition in vivo at 7.5 mg/kg,HCT-116 [23],29.9%
same,Activity,HCT-116 [24],72.7%
same,Ratio IC50,[25],1.1
same,Activity,HCT-116 [26],68.7%
same,Activity,[27],1 g
same,inhibition in vivo at 10 mg/kg,HeLa [28],30%
same,Activity,HCT-116 [29],4.9%
same,GI50,[30],30 to 4790 nM
same,Activity,Mus musculus [31],Active
same,IC50,HCT-116 [32],2000 to 2610 nM
same,Activity,HCT-116 [33],inactive
same,Activity,Mus musculus [34],Active
same,Activity,HeLa [35],31.5%
same,inhibition in vivo at 7.5 mg/kg,A-375 [36],20.6%
same,growth inhibition (GI),HT-29,Active
same,Activity,HCT-116 [37],inactive
